This data set is described as follows: molar enthalpy of vaporization or sublimation. The note with it: 298.15 K; Liquid; Static calorimetry.

Data on one compound can be found in the NIST ThermoML archive (doi:10.1016/j.jct.2014.04.003).

± gives the expanded uncertainty stated by the source.

As for `Cc1ccc(C)n1C` [1,2,5-trimethylpyrrole], the molar enthalpy amounted to 12.1 ± 0.311 kcal/mol.
